The assay deals with T1, S100A1 (Homo sapiens, UniProt P23297).
T1 construct: made in house; host or cells: E. coli BL21
T1 sequence (P23297 1-94): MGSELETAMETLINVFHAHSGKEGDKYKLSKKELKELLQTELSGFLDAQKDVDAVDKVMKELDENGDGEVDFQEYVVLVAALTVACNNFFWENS
Briefly: Steady-state fluorescence anisotropy binding assay, FITC-labelled TRPM6np peptides titrated with S100A1. The note with it: 1 μM N-terminally FITC-labelled peptide titrated with 100 μM S100A1, 50 mM Tris-HCl pH 7.5, 150 mM NaCl, 2 mM CaCl2, room temperature, at least five measurements, read-out: KD, equilibrium dissociation constant of the TRPM6np/S100A1 complex. On the procedure:
Steady-state fluorescence anisotropy experiments were performed at room temperature on a photon counting spectrometer PC1 (ISS Inc., Champaign, Illinois, USA). TRPM6npWT and its mutants were dissolved in a buffer containing 50 mM Tris-HCl (pH 7.5), 150 mM NaCl, and 2 mM CaCl2 for a final concentration of 1 μM. The samples were titrated in a 2-mm path cuvette with increasing aliquots of 100 μM CaM or S100A1. Fluorescence was excited at 495 nm; the intensity of emission in parallel (III) and perpendicular (I﬩) orientations to the direction of the polarised excitation was obtained at 520 nm by switching the emission polariser. The steady-state fluorescence anisotropy value (r) was calculated from the equation r = (III − I﬩) / (III + 2I﬩). […] Q represents the quantum yield ratio of the bound to the free peptide, calculated from fluorescence lifetimes (τ) according to equation Q = τbound/τfree. […]
Lifetimes were evaluated at room temperature in a drop placed on a coverslip and inserted into an inverted confocal microscope IX83 (Olympus, Tokyo, Japan) equipped with time-correlated single photon counting electronics and cooled GaAsP hybrid detectors (all PicoQuant, Berlin, Germany). […] fluorescence was excited at 485 nm by an LDH-485 picosecond laser (PicoQuant, Berlin, Germany). […]

Each structure is given as a SMILES string.

Turning to `CC[C@H](C)[C@H](NC(=O)[C@H](CC(C)C)NC(=S)Nc1ccc2c(c1)C(=O)OC21c2ccc(O)cc2Oc2cc(O)ccc21)C(=O)NCC(=O)N[C@@H](CCCNC(=N)N)C(=O)N[C@@H](C)C(=O)N[C@@H](Cc1ccc(O)cc1)C(=O)N[C@@H](CCCNC(=N)N)C(=O)N[C@@H](CO)C(=O)N[C@@H](CC(N)=O)C(=O)N[C@@H](Cc1ccc(O)cc1)C(=O)N[C@H](C(=O)N[C@@H](C)C(=O)N[C@@H](C)C(=O)N[C@@H](Cc1c[nH]cn1)C(=O)N[C@@H](Cc1ccccc1)C(=O)N[C@@H](CCCNC(=N)N)C(=O)O)[C@@H](C)O` [K532A/R531A], the Kd was 50.2 µM. Consider `CC[C@H](C)[C@H](NC(=O)[C@H](CC(C)C)NC(=S)Nc1ccc2c(c1)C(=O)OC21c2ccc(O)cc2Oc2cc(O)ccc21)C(=O)NCC(=O)N[C@@H](CCCNC(=N)N)C(=O)N[C@@H](C)C(=O)N[C@@H](Cc1ccc(O)cc1)C(=O)N[C@@H](CCCNC(=N)N)C(=O)N[C@@H](CO)C(=O)N[C@@H](CC(N)=O)C(=O)N[C@@H](Cc1ccc(O)cc1)C(=O)N[C@H](C(=O)N[C@@H](CCCNC(=N)N)C(=O)N[C@@H](C)C(=O)N[C@@H](Cc1c[nH]cn1)C(=O)N[C@@H](Cc1ccccc1)C(=O)N[C@@H](CCCNC(=N)N)C(=O)O)[C@@H](C)O` [K532A], for which the Kd is 24.8 µM.

The values are drawn from publication PMC6770577, “TRPM6 N-Terminal CaM- and S100A1-Binding Domains” (International Journal of Molecular Sciences, 2019).
